Values of other authors in PubChem BioAssay AID1259409 (Chemical Carcinogenesis Research Information System (CCRIS), 2018).

Tested on: rodent chemically induced tumor inhibition, incidence and multiplicity
Test: CCRIS tumor inhibitor studies
Conditions: Carcinogen: AZOXYMETHANE, 25843-45-2, Dose [Inhibitor]: 0, 0.02% IN DIET IN WK 1-3 OF STUDY FOLLOWED BY BASAL DIET FOR DURATION OF STUDY (STUDY DURATION: 1 YR), Route [Inhibitor]: ORAL, Species: RAT, Strain/Sex: F344/MALE, Dose [Carcinogen]: 15 MG/KG BW 1/WK IN WK 1 AND 2 OF STUDY, Promoter: NONE USED

CC(C)=CC[C@@H](O)C1=CC(=O)c2c(O)ccc(O)c2C1=O
tumour outcome (control, treated, inhibition, significance) (Target Tissue: Type of Lesion: LARGE INTESTINE: ADENOCARCINOMA): 13/27 (48%), 6/20 (30%), 38%, not significant
tumour outcome (control, treated, inhibition, significance) (Target Tissue: Type of Lesion: LARGE INTESTINE: ADENOMA): 6/27 (22%), 4/20 (20%), 9%, not significant
tumour outcome (control, treated, inhibition, significance) (Target Tissue: Type of Lesion: SMALL INTESTINE: ADENOCARCINOMA): 6/27 (22%), 1/20 (5%), 77%, not significant
